Tested on: Melanocytes
Test: Measurement of UV-induced apoptosis by Annexin Va staining
Assay type: cell-based
Conditions: melanocytes in medium lacking BPE; treated 4 days prior to and 24 h after UV dose 105 mJ/cm^2; vs control
Protocol: Melanocytes were treated with the different concentrations of the pyrrolidine compound for 4 days prior to, and 24 h after exposure to a UV dose (105 mJ/cm^2), then stained for Annexin Va staining. The data were collected as percent increase above control, with triplicate dishes included in each group. Effect of the pyrrolidine compound vs control on the UV-induced apoptosis were determined in melanocyte strains. Floating as well as attached cells were harvested and stained for Annexin V, and analyzed by flow cytometry.

`COC[C@H]1CN(C(=O)[C@]2(F)CN(C3CCCC3)C[C@H]2c2ccc(OC)cc2)C[C@@H]1c1ccc(C(F)(F)F)cc1N1CCC(C(=O)O)CC1` [Dersimelagon, 1-{2-[(3S,4R)-1-{[(3R,4R)-1-cyclopentyl-3-fluoro-4-(4-methoxyphenyl)pyrrolidin-3-yl]carbonyl}-4-(methoxymethyl)pyrrolidin-3-yl]-5-(trifluoromethyl)phenyl}piperidine-4-carboxylic acid] was tested, and the “Effect on UV-induced apoptosis (Annexin V staining, flow cytometry)” value was “beneficial anti-apoptotic effects”.

Source: patent US20230355598A1, “PYRROLIDINE COMPOUNDS TO TREAT XERODERMA PIGMENTOSUM” (Clinuvel (UK) Ltd., priority 2020, published 2023)
